Data set [1] deals with T1, wild type EGFR tyrosine kinase (EGFR^wt) (Homo sapiens, UniProt P00533).
T1 construct: purchased PTM Bio; Co., Ltd
Description: In vitro EGFR^wt-TK assay (ELISA). Particulars: mean ± SD of three replicates; for inhibition at 1 µM: read-out: EGFR^wt-TK inhibition rate. The class given is biochemical. (In general: An ELISA detects its analyte on a solid surface through an enzyme-linked reagent.)

Data set [2] relates to A549 cells. Description: Cytotoxicity evaluation (MTT assay), A549. It is filed as cell-based. Particulars: Homo sapiens, mean ± SD of three replicates. For orientation: Tetrazolium dyes change colour on reduction, which living cells bring about.
A further data set deals with PC-3 cells. In words: Cytotoxicity evaluation (MTT assay), PC-3. The class given is cell-based. Particulars: Homo sapiens, mean ± SD of three replicates.
The next data set deals with HepG2 cells. In words: Cytotoxicity evaluation (MTT assay), HepG2. The class given is cell-based. Particulars: Homo sapiens, mean ± SD of three replicates.
The subject of data set [3] is A549 cells. Description: Cell apoptosis analysis, Annexin V-FITC/PI flow cytometry. It is filed as cell-based, Human. Particulars: A549, 10 μM, 48 h. An excerpt: Apoptosis of A549 cells is an efficient route to clear out the extra cancer cells in the tissue homeostasis.
Background: A flow cytometer gives signals particle by particle.

Data set [4] deals with A549 cells. In words: Cell cycle analysis, PI flow cytometry. Particulars: 48 h.
Description: The experimental data of apoptosis and cell cycle for A549 cells were evaluated in BD Accuri C6 flow cytometry (American BD Corporation Shanghai Co., Ltd.), provided by the School of Pharmaceutical Sciences, Guizhou University.
(B) Profiles obtained by FACS. The percentages for different phases of the cell cycle were illustrated in the histogram.
A further data set relates to L02 cells. In words: Cytotoxicity evaluation (MTT assay), L02 normal cells. As to conditions: Homo sapiens, L02, read-out: IC50 L02.

T1 sequence (P00533 25-1210): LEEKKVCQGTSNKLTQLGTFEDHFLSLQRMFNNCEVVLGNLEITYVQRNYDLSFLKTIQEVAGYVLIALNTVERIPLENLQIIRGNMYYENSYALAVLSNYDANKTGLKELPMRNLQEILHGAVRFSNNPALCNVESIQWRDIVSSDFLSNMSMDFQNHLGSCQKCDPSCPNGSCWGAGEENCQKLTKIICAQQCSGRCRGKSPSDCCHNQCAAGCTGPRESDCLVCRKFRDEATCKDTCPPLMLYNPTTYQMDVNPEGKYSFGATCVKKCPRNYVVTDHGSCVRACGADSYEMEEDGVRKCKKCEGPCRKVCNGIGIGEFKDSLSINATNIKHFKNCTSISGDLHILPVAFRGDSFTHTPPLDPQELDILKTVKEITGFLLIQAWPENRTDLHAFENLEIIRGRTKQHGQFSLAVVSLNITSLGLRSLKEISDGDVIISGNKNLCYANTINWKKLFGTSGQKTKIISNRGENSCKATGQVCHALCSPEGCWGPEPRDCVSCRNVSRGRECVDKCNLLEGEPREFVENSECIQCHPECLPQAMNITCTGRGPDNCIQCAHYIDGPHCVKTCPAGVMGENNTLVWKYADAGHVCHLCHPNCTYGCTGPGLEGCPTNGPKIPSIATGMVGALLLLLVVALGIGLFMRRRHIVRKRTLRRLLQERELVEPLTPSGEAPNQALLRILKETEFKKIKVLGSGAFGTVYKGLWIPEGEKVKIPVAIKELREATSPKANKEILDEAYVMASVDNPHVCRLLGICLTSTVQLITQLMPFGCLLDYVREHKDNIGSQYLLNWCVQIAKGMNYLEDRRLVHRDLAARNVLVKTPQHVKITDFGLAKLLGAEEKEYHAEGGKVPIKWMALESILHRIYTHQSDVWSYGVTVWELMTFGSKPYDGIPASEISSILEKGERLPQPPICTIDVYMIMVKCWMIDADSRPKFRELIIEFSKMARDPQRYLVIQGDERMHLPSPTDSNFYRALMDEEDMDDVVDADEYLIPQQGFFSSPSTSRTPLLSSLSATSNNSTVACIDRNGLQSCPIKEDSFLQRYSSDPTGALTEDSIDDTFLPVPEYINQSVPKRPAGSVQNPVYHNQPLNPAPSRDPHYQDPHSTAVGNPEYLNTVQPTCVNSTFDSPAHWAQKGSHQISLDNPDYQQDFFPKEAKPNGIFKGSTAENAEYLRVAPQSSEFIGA
Description for L02 cells: Three tumour cells with high expression of EGFR^wt were used to test the antitumor activity of the compounds including, A549 (Human non-small-cell lung cancer cell line) cells, PC-3 (Human prostate cancer cell line) cells, and HepG2 (Human hepatocellular carcinomas cell line) cells. They were all purchased from the Shanghai Cell Bank of the Chinese Academy of Sciences. L02 (normal human liver cell line) cells were also used to evaluate the cytotoxicity. […] The IC50 values were calculated from the dose − response curve under Graph-Pad Prism.

Broadly, the inhibition is the percentage by which the read-out fell short of the control. What is called IC50 is the concentration that gives 50% inhibition. The melting point is the temperature of the solid-liquid transition. Compound `CNC(=O)c1ccsc1Nc1nc(Nc2ccc(NC(=O)c3cccc(F)c3)cc2)ncc1C(F)(F)F` [4c, 2-{2-[4–(3-Fluoro-benzoylamino)-phenylamino]-5-trifluoromethyl-pyrimidin-4-ylamino}-thiophene-3-carboxylic acid methylamide] yielded a melting point of 217.1 to 219 °C. In data set [1] (1 μM), the “EGFR^wt-TK inhibition rate” value was 61.69 ± 2.08% and the inhibition at 1 µM was more than 50%. For the same compound, the IC50 in data set [1] came out at 0.32 ± 0.047 µM. This compound had an IC50 in the data set on A549 cells [2] of 0.56 ± 0.12 µM. Also, in the data set with PC-3 cells, the IC50 was determined as 2.46 ± 0.42 µM. Also, the IC50 with HepG2 cells turned out to be 2.21 ± 0.5 µM. Further, in the data set with A549 cells [3], the “early apoptotic cells (Q2-4)” value came out at 10.70% and the “late apoptotic cells (Q2-2)” value came out at 57.84%. Moreover, the “Percentage of cells in G2/M phase” value in the data set with A549 cells [4] (A549, 1 μM) stood at 51.09%. In addition, the “Percentage of cells in G2/M phase” value in the data set on A549 cells [4] (A549, 10 μM) was determined as 59.32%. For the same compound, the IC50 with L02 cells was more than 40 µM.

Turning to `CNC(=O)c1ccsc1Nc1nc(Nc2ccc(Nc3c(NCCNC(=O)C4CCCC4)c(=O)c3=O)cc2)ncc1C(F)(F)F` [8c, 2-[2–(4-{2-[2-(Cyclopentanecarbonyl-amino)-ethylamino]-3,4-dioxo-cyclobut-1-enylamino}-phenylamino)-5-trifluoromethyl-pyrimidin-4-ylamino]-thiophene-3-carboxylic acid methylamide], the melting point is more than 250 °C. In data set [1] (1 μM), the inhibition at 1 µM is 28.1 ± 1.27%. In the data set on A549 cells [2], the IC50 was 7.32 ± 0.65 µM. In the data set on PC-3 cells, this compound showed an IC50 of 9.69 ± 1.13 µM. This compound also showed an IC50 in the data set with HepG2 cells of 9.54 ± 0.91 µM. For the same compound, in the data set on L02 cells, the IC50 is more than 40 µM.

`CNC(=O)c1ccsc1Nc1nc(Nc2ccc(Nc3c(NCCNC(=O)C4CCCCC4)c(=O)c3=O)cc2)ncc1C(F)(F)F` [8d, 2-[2-(4-{2-[2-(Cyclohexanecarbonyl-amino)-ethylamino]-3,4-dioxo-cyclobut-1-enylamino}-phenylamino)-5-trifluoromethyl-pyrimidin-4-ylamino]-thiophene-3-carboxylic acid methylamide]: the melting point is more than 250 °C. The inhibition at 1 µM in data set [1] (1 μM) was determined as 29 ± 1.55%. The compound also gave an IC50 with A549 cells [2] of 6.14 ± 0.72 µM. In the data set on PC-3 cells, this compound displayed an IC50 of 8.35 ± 0.74 µM. For the same compound, in the data set on HepG2 cells, half-maximal inhibition (IC50) was put at 8.28 ± 0.69 µM. Moreover, in the data set with L02 cells, the IC50 is more than 40 µM.

For the compound `CNC(=O)c1ccsc1Nc1nc(Nc2ccc(Nc3c(NCCNC(=O)C=Cc4ccccc4)c(=O)c3=O)cc2)ncc1C(F)(F)F` [8e, 2-[2-(4-{3,4-Dioxo-2-[2-(3-phenyl-acryloylamino)-ethylamino]-cyclobut-1-enylamino}-phenylamino)-5-trifluoromethyl-pyrimidin-4-ylamino]-thiophene-3-carboxylic acid methylamide], the melting point is more than 250 °C. Also, the inhibition at 1 µM in data set [1] (1 μM) was 53.1 ± 1.75%. The compound further showed an IC50 in data set [1] of 0.64 ± 0.1 µM. Besides, the IC50 in the data set on A549 cells [2] is 3.15 ± 0.44 µM. Moreover, the IC50 in the data set on PC-3 cells was determined as 4.12 ± 0.65 µM. Besides, 4.31 ± 0.39 µM corresponded to half-maximal inhibition in the data set with HepG2 cells (IC50). Also, in the data set with L02 cells, the IC50 was more than 40 µM.

Consider `CNC(=O)c1ccsc1Nc1nc(Nc2ccc(Nc3c(NCCNC(=O)C=Cc4cccc(F)c4)c(=O)c3=O)cc2)ncc1C(F)(F)F` [8f, 2-{2-[4–(2-{2-[3-(3-Fluoro-phenyl)-acryloylamino]-ethylamino}-3,4-dioxo-cyclobut-1-enylamino)-phenylamino]-5-trifluoromethyl-pyrimidin-4-ylamino}-thiophene-3-carboxylic acid methylamide], for which the melting point was more than 250 °C. In addition, in data set [1] (1 μM), the inhibition at 1 µM was 58.9 ± 1.92%. The compound also registered an IC50 in data set [1] of 0.57 ± 0.29 µM. Moreover, the IC50 with A549 cells [2] turned out to be 2.17 ± 0.54 µM. In the data set with PC-3 cells, this compound came in with an IC50 of 3.48 ± 0.22 µM. The compound also registered an IC50 in the data set on HepG2 cells of 3.09 ± 0.66 µM. For the same compound, the half-maximal inhibitory concentration (IC50) in the data set with L02 cells was more than 40 µM.

In the case of `CNC(=O)c1ccsc1Nc1nc(Nc2ccc(Nc3c(NCCNC(=O)C=Cc4ccc(F)cc4)c(=O)c3=O)cc2)ncc1C(F)(F)F` [8g, 2-{2-[4–(2-{2-[3–(4-Fluoro-phenyl)-acryloylamino]-ethylamino}-3,4-dioxo-cyclobut-1-enylamino)-phenylamino]-5-trifluoromethyl-pyrimidin-4-ylamino}-thiophene-3-carboxylic acid methylamide], the melting point was more than 250 °C. Besides, in data set [1] (1 μM), the inhibition at 1 µM turned out to be 52.1 ± 1.93%. This compound also came in with an IC50 in data set [1] of 0.59 ± 0.15 µM. In addition, the IC50 in the data set on A549 cells [2] was 3.14 ± 0.92 µM. For the same compound, the IC50 in the data set with PC-3 cells amounted to 6.08 ± 0.94 µM. Also, in the data set on HepG2 cells, the IC50 was 5.33 ± 0.58 µM. Also, the IC50 with L02 cells is more than 40 µM.

Regarding `COc1cc2ncnc(Nc3ccc(F)c(Cl)c3)c2cc1OCCCN1CCOCC1` [Gefitinib, reference compound], in the data set on A549 cells [3], the “early apoptotic cells (Q2-4)” value worked out at 7.77% and the “late apoptotic cells (Q2-2)” value is on record as 10.62%. In the data set on A549 cells [4] (A549, 10 μM), the “Percentage of cells in G2/M phase” value is given as 21.71%.

Source of the values: PMC8920385, “Design, synthesis and biological evaluation of a series of dianilinopyrimidines as EGFR inhibitors” (Journal of Enzyme Inhibition and Medicinal Chemistry, 2022).
